Data: ChEMBL document CHEMBL1201862, “PubChem BioAssay data set” (2004)
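Interpolation was linear, between the two tested concentrations surrounding the appropriate level; five concentrations were tested over 48 hours in 96-well plates. The concentration for 50% growth inhibition is given as GI50.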 Activity calls are given as the source filed them. Rule as the data show it: active = GI50 up to about 1.1 µM and inactive = higher.

How the values were obtained:
Test in all cases: NCI-60 cell line screen, 48 h
[1] = tested on: 786-0
[2] = tested on: A498
[3] = tested on: CCRF-CEM
[4] = tested on: EKVX
[5] = tested on: HCT-116
[6] = tested on: HCT-15
[7] = tested on: HL-60
[8] = tested on: K562
[9] = tested on: LXFL 529
[10] = tested on: OVCAR-3
[11] = tested on: OVCAR-4
[12] = tested on: SF-539
[13] = tested on: SNB-19
[14] = tested on: SW-620
[15] = tested on: UACC-257
[16] = tested on: UACC-62
[17] = tested on: UO-31
[18] = tested on: MCF7
[19] = tested on: RXF 393
[20] = tested on: SK-MEL-28

Measured: GI50

O=C(/C=C/c1ccccc1)c1ccc(Cl)cc1Cl
inactive: [1] 17.9 µM | [2] 18.3 µM | [3] 7.24 µM | [4] 28.4 µM | [5] 11.2 µM | [7] 14.8 µM | [8] 10 µM | [9] 15.1 µM | [10] 20 µM | [11] 20.7 µM | [12] 20.8 µM | [13] 27.5 µM | [14] 4.8 µM | [15] 23.8 µM | [16] 15.9 µM | [17] > 100 µM
13.1 µM: [6]

COc1cc(C2c3cc4c(cc3OC(NCCc3ccccc3)C2C)OCO4)cc(OC)c1OC (stereo not given)
active: [1] 0.465 µM | [2] 0.574 µM | [3] 0.343 µM | [5] 0.409 µM | [7] 0.208 µM | [8] 0.269 µM | [18] 0.383 µM | [10] 0.378 µM | [11] 0.778 µM | [19] 0.203 µM | [12] 0.286 µM | [13] 0.455 µM | [14] 0.316 µM | [16] 0.388 µM | [17] 0.457 µM
0.385 µM: [6]
inactive: [4] 1.56 µM | [20] 18.3 µM | [15] 6.34 µM

C/C=C/C=N/N(c1nnc(-c2ccccc2)c(-c2ccccc2)n1)S(=O)(=O)c1ccc(C)cc1
5.14 µM: [6]
inactive: [1] 6.78 µM | [2] 14.3 µM | [3] 2.49 µM | [4] 17.8 µM | [5] 8.09 µM | [7] 2.33 µM | [8] 6.37 µM | [9] 7.21 µM | [10] 12.6 µM | [11] 13.2 µM | [12] 11.5 µM | [20] 13.5 µM | [14] 4.05 µM | [15] 8.34 µM | [16] 3.33 µM | [17] 5.74 µM

C(/C=C/N1CCCC1)=C\c1nc(N2CCCC2)c2ccccc2n1
16.4 µM: [6]
inactive: [1] 16.6 µM | [2] > 100 µM | [3] 13.2 µM | [4] 20.1 µM | [5] 19.7 µM | [7] 23.4 µM | [8] 12.5 µM | [9] 14.7 µM | [10] 15.7 µM | [11] 13.9 µM | [12] 18.3 µM | [20] 22.9 µM | [13] 18.5 µM | [14] 14.3 µM | [15] 33.2 µM | [16] 21.2 µM | [17] 15.7 µM

Oc1nc(S)nc2c1CCCN2
inactive: [1] > 100 µM | [3] > 100 µM | [4] > 100 µM | [5] > 100 µM | [7] > 100 µM | [8] > 10 µM | [9] > 100 µM | [10] > 100 µM | [19] > 100 µM | [20] > 100 µM | [13] > 100 µM | [14] > 100 µM | [15] > 100 µM | [16] > 100 µM | [17] > 100 µM
> 100 µM: [6]

COc1ccc(C2(Cl)C(Cl)(C(F)(F)F)C2(Cl)C(F)(F)F)cc1 (stereo not given)
14.2 µM: [6]
inactive: [1] 17.2 µM | [3] 3.78 µM | [4] 17.5 µM | [5] 11.7 µM | [7] 8.38 µM | [8] 20.5 µM | [9] 13.9 µM | [10] 15.5 µM | [11] 16.4 µM | [19] 12.1 µM | [12] 15.2 µM | [20] 15.6 µM | [13] 15.7 µM | [14] 15 µM | [15] 13.6 µM | [16] 13.6 µM | [17] 16 µM

Nc1ccc(C(=O)NN2C(=O)C(Cl)C2c2ccccc2O)cc1 (stereo not given)
inactive: [1] 30.2 µM | [3] 6.01 µM | [4] 49.3 µM | [5] 60.5 µM | [7] 1.15 µM | [8] 75 µM | [9] 54.2 µM | [10] 31.7 µM | [11] 60.1 µM | [12] 85.9 µM | [20] > 100 µM | [13] > 100 µM | [14] 73.6 µM | [15] > 100 µM | [16] 72.3 µM | [17] 21.9 µM
35.2 µM: [6]

CC(=O)Oc1c(Br)ccc2cc(C(Br)Br)c(C(=O)c3ccccc3)nc12
inactive: [1] 22.6 µM | [4] 22.5 µM | [5] 21.8 µM | [8] 20.2 µM | [9] 30.6 µM | [10] > 10 µM | [11] 5.01 µM | [19] 17.9 µM | [12] 18.6 µM | [20] 15.9 µM | [13] 19.9 µM | [14] 22.4 µM | [15] 1.88 µM | [16] 20 µM | [17] 19.2 µM
22.8 µM: [6]

CCOC(=O)c1ccc(-c2cccs2)[nH]1
inactive: [1] > 100 µM | [2] > 55.5 µM | [3] > 81.3 µM | [4] 38.8 µM | [5] 68.5 µM | [7] 38.8 µM | [8] 71.3 µM | [18] 53.7 µM | [10] 59.8 µM | [11] 31.6 µM | [19] > 66.4 µM | [12] > 100 µM | [20] > 80.5 µM | [13] 98.2 µM | [14] > 84.7 µM | [15] 91.6 µM | [16] 52.7 µM | [17] 50 µM
26.9 µM: [6]

CCCCC1CC(c2cccc([N+](=O)[O-])c2)=NO1 (stereo not given)
inactive: [1] > 100 µM | [2] 49.2 µM | [3] 48.5 µM | [4] 58.2 µM | [5] > 100 µM | [7] 30.4 µM | [8] 60.8 µM | [9] 56.5 µM | [10] 76.2 µM | [11] > 100 µM | [12] > 100 µM | [20] > 100 µM | [13] > 100 µM | [14] > 100 µM | [15] 48.3 µM | [16] 54.8 µM | [17] 50.9 µM
> 100 µM: [6]

CCOc1ccc(/N=N/c2ccc3oc(=O)c(C(=O)Nc4ccc(OC)cc4)cc3c2)cc1
6.12 µM: [6]
inactive: [1] 21.9 µM | [2] 4.22 µM | [3] 2.36 µM | [4] 26.6 µM | [5] 11.3 µM | [7] 2.88 µM | [8] 8.38 µM | [9] 6.82 µM | [10] 19.5 µM | [11] 7.1 µM | [12] 20.2 µM | [20] 18.9 µM | [13] 14 µM | [14] 18.5 µM | [15] 27.9 µM | [16] 11.7 µM | [17] 5.57 µM

O=S(=O)(O)c1ccc(-c2c3nc(c(-c4ccc(S(=O)(=O)O)cc4)c4ccc([nH]4)c(-c4ccc(S(=O)(=O)O)cc4)c4nc(c(-c5ccc(S(=O)(=O)O)cc5)c5ccc2[nH]5)C=C4)C=C3)cc1
> 100 µM: [6]
inactive: [1] > 100 µM | [2] 31 µM | [3] > 100 µM | [4] > 100 µM | [5] > 100 µM | [8] > 100 µM | [9] > 100 µM | [10] > 100 µM | [11] 45.6 µM | [19] 19.9 µM | [12] > 100 µM | [20] 16.5 µM | [13] > 100 µM | [14] > 100 µM | [15] > 100 µM | [16] > 100 µM | [17] 19.5 µM

OC1C2[C@@H](O)CCCN2C[C@@H](O)[C@H]1O (stereo not given in full)
inactive: [1] > 100 µM | [2] > 100 µM | [3] > 100 µM | [4] > 100 µM | [5] > 100 µM | [7] > 100 µM | [8] > 100 µM | [18] > 100 µM | [10] > 100 µM | [11] > 100 µM | [19] > 100 µM | [12] > 100 µM | [20] > 100 µM | [13] > 100 µM | [14] > 100 µM | [15] > 100 µM | [16] > 100 µM | [17] > 100 µM
> 100 µM: [6]

COc1ccc2c(c1)CC1c3c(cc4c(c3-2)OCO4)CCN1C (stereo not given)
inactive: [1] 27.6 µM | [2] 14.4 µM | [3] 23 µM | [4] 33.4 µM | [5] 19.5 µM | [8] 23.3 µM | [9] 36.5 µM | [10] 32.5 µM | [11] 23.1 µM | [12] 31.3 µM | [20] 28.8 µM | [13] 42 µM | [14] 19.5 µM | [15] 24.1 µM | [16] 21.6 µM | [17] 14 µM
36.9 µM: [6]

CCCCCC/C=C\CCCCCCCCCC1=CC(=O)C=C(OC)C1=O [IRISQUINONE A]
inactive: [1] 4.68 µM | [2] 5.82 µM | [3] 1.57 µM | [4] 3.57 µM | [5] 3.43 µM | [7] 1.88 µM | [18] 4.46 µM | [10] 3.98 µM | [11] 2.05 µM | [19] 3.01 µM | [12] 2.05 µM | [20] 11.5 µM | [13] 2.89 µM | [14] 4.6 µM | [15] 3.28 µM | [16] 4.05 µM | [17] 4.57 µM
active: [8] 0.753 µM
2.1 µM: [6]

CC1=C2O[C@]3(O)C=C2C(=C(O)C1=O)[C@@H]1O[C@H](CC[C@H](C)/C=C(\C)C[C@@H](C)C[C@@H]3C)[C@H](C)[C@H](O)[C@H]1C [KENDOMYCIN]
inactive: [2] 1.58 µM
active: [1] 0.149 µM | [3] 0.0473 µM | [4] 0.356 µM | [5] 0.176 µM | [7] 0.145 µM | [8] 0.166 µM | [18] 0.179 µM | [10] 0.15 µM | [11] 0.194 µM | [19] 0.161 µM | [12] 0.173 µM | [20] 0.229 µM | [13] 0.977 µM | [14] 0.582 µM | [15] 0.239 µM | [16] 0.233 µM | [17] 0.193 µM
0.124 µM: [6]
